Results as given in PubChem BioAssay (NCI).
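Values below derive from 48-hour exposures of cells grown in 96-well plates, with endpoints linearly interpolated between the two concentrations bracketing the appropriate inhibition level. GI50 = concentration required for 50% inhibition of growth. TGI is the concentration that stops growth completely.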

Columns and labels:
Assay in all cases: inhibition of tumour cell growth, NCI panel, 48 h
A549 NSCLC = system: A549 NSCLC
SF-268 CNS = system: SF-268 CNS
NCI-H23 lung = system: NCI-H23 lung
CAKI-1 renal = system: CAKI-1 renal
OVCAR-8 ovarian = system: OVCAR-8 ovarian
OVCAR-4 ovarian = system: OVCAR-4 ovarian
SK-MEL-28 melanoma = system: SK-MEL-28 melanoma
DU-145 prostate = system: DU-145 prostate
MDA-MB-231 breast = system: MDA-MB-231 breast
RPMI-8226 leukemia = system: RPMI-8226 leukemia

Compound | GI50 (A549 NSCLC) [µM] | TGI (A549 NSCLC) [µM] | GI50 (SF-268 CNS) [µM] | TGI (SF-268 CNS) [µM] | GI50 (NCI-H23 lung) [µM] | TGI (NCI-H23 lung) [µM] | GI50 (CAKI-1 renal) [µM] | TGI (CAKI-1 renal) [µM] | GI50 (OVCAR-8 ovarian) [µM] | TGI (OVCAR-8 ovarian) [µM] | GI50 (OVCAR-4 ovarian) [µM] | TGI (OVCAR-4 ovarian) [µM] | GI50 (SK-MEL-28 melanoma) [µM] | TGI (SK-MEL-28 melanoma) [µM] | GI50 (DU-145 prostate) [µM] | TGI (DU-145 prostate) [µM] | GI50 (MDA-MB-231 breast) [µM] | TGI (MDA-MB-231 breast) [µM] | GI50 (RPMI-8226 leukemia) [µM] | TGI (RPMI-8226 leukemia) [µM]
COc1ccc(OC)c(C2SCC(=O)N2NC(=O)C(O)c2ccccc2)c1 (stereo not drawn) | > 100 | > 100 | > 100 | > 100 | > 100 | > 100 | > 100 | > 100 | > 100 | > 100 | > 100 | > 100 | > 100 | > 100 | > 100 | > 100 | > 100 | > 100 | > 100 | > 100
CC(C)(C)c1ccc(C(=O)Nc2sc3c(c2C(N)=O)CCC(=O)C3)cc1 | 0.688 | 3.28 | 1.11 | 3.61 | 0.423 | 1.86 | 0.348 | 1.38 | 0.831 | 4.85 | 0.354 | 1.27 | 1.13 | 2.77 | 2.72 | 11.1 | 0.999 | 2.63 | 0.158 | 0.581
CCn1c2ccccc2c2cc(/C=C(/C#N)C(N)=O)ccc21 | 20.3 | > 100 | 19.9 | > 100 | 16.3 | > 100 | 5.53 | > 77.9 | 42.6 | > 100 | 6.54 | > 100 | 40.1 | > 100 | 13.8 | > 100 | 21 | > 100 | 7.94 | > 84.7
CCN1C(=O)N(CC)C2C1NN=c1s/c(=C3\C(=O)N(CCc4ccccc4)c4ccccc43)c(=O)n12 (stereo not drawn) | 0.638 | > 39.5 | 1.95 | 27.4 | 0.794 | 14.3 | 0.65 | 3.11 | 0.74 | > 43.1 | 1.13 | > 100 | 1.2 | > 28.4 | 0.558 | 6.95 | 0.844 | 7.51 | 0.608 | 
Nc1ccccc1SCc1csc(-c2ccc(Cl)cc2)n1 |  | > 100 |  | > 100 |  | > 84.6 |  | > 100 |  | > 100 |  | > 77.1 |  | > 94.5 |  | 99.1 |  | 54.6 |  | 44.7
Cn1cncc1CC1COC(=O)C1C(O)c1ccccc1 (stereo not drawn) |  | > 100 |  | > 100 |  | > 100 |  | > 100 |  | > 100 |  | > 100 |  | > 100 |  | > 100 |  | > 100 |  | > 100
CC1(C)CCC[C@]2(C)[C@@H](C=O)C(C=O)=CC[C@@H]12 |  | > 100 |  | 55.8 |  | 69.5 |  | 23.1 |  | 31.2 |  | 44.9 |  | > 100 |  | 50.3 |  | 23.1 |  | 31.4
CC1(C)OC2C(=O)C=C(COCc3ccccc3)C2O1 (stereo not drawn) |  | > 100 |  | > 100 |  | 59.4 |  | > 100 |  | > 100 |  |  |  | 95.4 |  | > 100 |  | > 100 |  | > 100
